Reference: ChEMBL document CHEMBL5096171, “Synthesis and Biological Evaluation of PSMA Ligands with Aromatic Residues and Fluorescent Conjugates Based on Them” (J Med Chem, 2021)
≈ marks a conversion by molar mass, not a printed value.

Columns and labels:
[1] = target: T1, Glutamate carboxypeptidase 2 (Homo sapiens, UniProt Q04609); experiment: Inhibition of PSMA derived from human LNCaP cell lysate assessed as inhibition of NAAG hydrolysis incubated for 2 hrs in presence of NAAG by Amplex Red assay; type: subcellular
Target sequence in this assay (Q04609 whole entry): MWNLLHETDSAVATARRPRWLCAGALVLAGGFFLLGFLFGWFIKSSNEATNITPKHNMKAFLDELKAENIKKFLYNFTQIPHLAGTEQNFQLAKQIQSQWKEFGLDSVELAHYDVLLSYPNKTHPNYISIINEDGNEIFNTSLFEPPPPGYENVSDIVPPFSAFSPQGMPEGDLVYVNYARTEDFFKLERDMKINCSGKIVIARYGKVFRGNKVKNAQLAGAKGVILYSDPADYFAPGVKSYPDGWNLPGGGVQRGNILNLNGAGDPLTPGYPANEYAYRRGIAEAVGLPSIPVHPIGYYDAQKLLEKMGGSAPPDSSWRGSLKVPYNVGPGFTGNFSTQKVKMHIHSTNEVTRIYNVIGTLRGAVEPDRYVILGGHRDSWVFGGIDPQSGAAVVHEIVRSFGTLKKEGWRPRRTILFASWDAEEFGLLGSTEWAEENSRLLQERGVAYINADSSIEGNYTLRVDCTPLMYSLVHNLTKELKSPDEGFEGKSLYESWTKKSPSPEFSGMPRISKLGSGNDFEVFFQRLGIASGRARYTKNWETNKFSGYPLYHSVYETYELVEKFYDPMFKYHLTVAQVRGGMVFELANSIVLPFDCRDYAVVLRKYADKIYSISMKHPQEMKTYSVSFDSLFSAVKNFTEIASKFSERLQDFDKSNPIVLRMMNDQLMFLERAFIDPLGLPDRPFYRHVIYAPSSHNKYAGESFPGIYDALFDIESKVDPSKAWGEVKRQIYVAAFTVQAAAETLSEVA

[2] = Drug uptake in human PC-3 cells assessed as decrease in drug accumulation incubated for 1 hr in presence of (3S,7S,25S,28S)-33-Azido-25-benzyl-12-(3-chlorobenzyl)-28-(4-hydroxybenzyl)-5,13,20,23,26,29-hexaoxo-4,6,12,19,24,27,30-heptaazatritriacontane-1,3,7-tricarboxylic acid by flow cytometry; type: ADME, cell-based; details: pc-3, 1 h
[3] = Drug uptake in human 22Rv1 cells assessed as decrease in drug accumulation incubated for 1 hr in presence of (3S,7S,25S,28S)-33-Azido-25-benzyl-12-(3-chlorobenzyl)-28-(4-hydroxybenzyl)-5,13,20,23,26,29-hexaoxo-4,6,12,19,24,27,30-heptaazatritriacontane-1,3,7-tricarboxylic acid by flow cytometry; type: ADME, cell-based; details: cwr22r
[4] = Drug localisation in human LNCaP cells assessed as increase in fluorescent signal at 100 nM incubated for 2 hrs by Hoechst 33342 staining based fluorescence microscopy; type: ADME, cell-based; details: 0.1 µM
[5] = Drug uptake in human LNCaP cells assessed as fold decrease in drug accumulation incubated for 1 hr in presence of (3S,7S,25S,28S)-33-Azido-25-benzyl-12-(3-chlorobenzyl)-28-(4-hydroxybenzyl)-5,13,20,23,26,29-hexaoxo-4,6,12,19,24,27,30-heptaazatritriacontane-1,3,7-tricarboxylic acid by flow cytometry; type: ADME, cell-based
[6] = target: T1, Glutamate carboxypeptidase 2; experiment: Inhibition of PMSA in human LNCaP cells assessed as increase in fluorescent signal upto 100 nM incubated for 1 hr by flow cytometry (reference value: 2.11%); type: cell-based
Target sequence in this assay (Q04609 whole entry, looked up): as the sequence (Q04609 whole entry) above

[7] = target: T1, Glutamate carboxypeptidase 2; experiment: Inhibition of PMSA in human 22Rv1 cells assessed as increase in fluorescent signal upto 100 nM incubated for 1 hr by flow cytometry (reference value: 2.97%); type: cell-based
Target sequence in this assay (Q04609 whole entry, looked up): as the sequence (Q04609 whole entry) above

[8] = target: T1, Glutamate carboxypeptidase 2; experiment: Inhibition of PMSA in human PC-3 cells assessed as increase in fluorescent signal upto 100 nM incubated for 1 hr by flow cytometry (reference value: 1.14%); type: cell-based
Target sequence in this assay (Q04609 whole entry, looked up): as the sequence (Q04609 whole entry) above

LNCaP = experiment: Cytotoxicity against human LNCaP cells assessed as reduction in cell viability incubated for 5 days by MTT assay; type: functional; details: 120 h, time 5 day
PC-3 = experiment: Cytotoxicity against human PC-3 cells assessed as reduction in cell viability incubated for 5 days by MTT assay; type: functional; details: PC-3, 120 h, time 5 day
[9] = Drug uptake in bloodstream of Balb/c nude mouse xenografted with human 22Rv1 cells at 0.449 mg/kg, IT administered as single dose measured after 24 hrs; type: ADME, organism-based, Blood, CWR22R; details: in vivo, other
[10] = Drug uptake in skin capillary of Balb/c nude mouse xenografted with human 22Rv1 cells at 0.449 mg/kg, IT administered as single dose measured after 24 hrs; type: ADME, organism-based, Skin of body, CWR22R; details: in vivo, other
[11] = Drug excretion in Balb/c nude mouse xenografted with human 22Rv1 cells assessed as non-specifically bound drug at 0.449 mg/kg, IT administered as single dose measured after 24 hrs; type: ADME, organism-based, CWR22R; details: in vivo, other
[12] = Drug excretion in […] at 0.449 mg/kg, IT administered as single dose measured after 24 hrs; type: ADME, organism-based, CWR22R; details: in vivo, other
[13] = Drug uptake in human 22Rv1 cells xenografted in Balb/c nude mouse assessed as amount of fluorescence intensity at 0.449 mg/kg, IT administered as single dose measured after 24 hrs by IVIS Spectrum CT analysis; type: ADME, organism-based, CWR22R; details: in vivo, other
[14] = Drug uptake in human PC-3 cells xenografted in Balb/c nude mouse assessed as amount of fluorescence intensity at 0.449 mg/kg, IT administered as single dose measured after 24 hrs by IVIS Spectrum CT analysis; type: ADME, organism-based; details: in vivo, other
[15] = n-Octanol/aqueous buffer distribution coefficient, log D of compound at pH 6.4 by shake flask method; type: physicochemical
[16] = Water solubility of the compound; type: physicochemical

CN1/C(=C/C=C/C=C/C2=[N+](CCCCCC(=O)NCc3cn(CCCNC(=O)[C@H](Cc4ccc(O)cc4)NC(=O)[C@H](Cc4ccccc4)NC(=O)CCC(=O)NCCCCCC(=O)N(CCCC[C@H](NC(=O)N[C@@H](CCC(=O)O)C(=O)O)C(=O)O)Cc4cccc(Cl)c4)nn3)c3ccc(S(=O)(=O)[O-])cc3C2(C)C)C(C)(C)c2cc(S(=O)(=O)O)ccc21
Ki [1]: 0.0026 µM | Drug uptake [2]: Active | Drug uptake [3]: Active | Drug uptake [4]: Active | fold change (FC) [5]: 4.1 | inhibition [6]: 95% | inhibition [7]: 35.3% | inhibition [8]: 2.79% | CC50 (LNCaP): > 100 µM | CC50 (PC-3): > 100 µM | Drug uptake [9]: Active | Drug uptake [10]: Active | Drug excretion [11]: Active | Drug excretion [12]: Active | Activity [13]: 1.5 10^9(p/s)(uW/cm^2) | Activity [14]: 1.5 10^9(p/s)(uW/cm^2) | logD [15]: -1.2 | solubility [16]: 7000 µg/mL (≈ 4.05 mM)
